The values below come from patent publication US12171870B2, “Contact lens packaging solutions” (ALCON INC., priority 2020, dated 2024).

Some results are limits rather than exact numbers.

Data set [1] is described as follows: Dissolution of DMPC in HCl aqueous solution and nanoparticle formation by stirring. The format is physicochemical. The text has this:
The present invention is partly based on the discovery that phosphatidylcholine nanoparticles can be formed in an aqueous solution free of an organic solvent by high energy treating the mixture of water insoluble phosphatidylcholine and an aqueous solution having a pH from 1 to 4. The present invention is also partly based on the discovery that at pH lower than pKa, the negative charge of phosphate group in phosphatidylcholine is neutralized through the protonation, which break static stacking in phosphatidylcholine crystal and improve solubility of phosphatidylcholine in an aqueous solution (scheme 1). For example, according to the experimental results of the present application, DMPC is dissolved (pKa 1.86) into 137 mM of HCl aqueous solution up to 10 mg/mL and induced aggregate and formed nanoparticles (˜30 nm) by stirring at room temperature for about 10 hours. After neutralized by NaOH, the nanoparticles were diluted to certain concentration in packing saline.
Method: DMPC was added into 135 mM of HCl and stirred overnight at room temperature to form nanoparticles (4-440 mg/mL). Then, pH was adjusted to 6-8 by 50% NaOH. The solution was diluted by PBS or Saline 14 to get certain concentration (0.1-2 mg/mL).

For data set [2] the following is noted: DMPC phosphate group; cited from earlier work.

What is called solubility is how much of the substance goes into solution per volume. The pKa is the negative logarithm of the acid dissociation constant. `CCCCCCCCCCCCCC(=O)OC[C@H](COP(=O)([O-])OCC[N+](C)(C)C)OC(=O)CCCCCCCCCCCCC` [DMPC, Dimyristoylphosphatidylcholine]: the solubility in data set [1] (137 mM HCl aqueous solution, read-out: DMPC dissolved into HCl aqueous solution (solubility)) was at most 10 mg/mL. In data set [1] (formed by stirring at room temperature for about 10 hours in 137 mM HCl), this compound displayed a Nanoparticle size of around 30 nm. Also, the pKa in data set [2] was 1.86.
